Literature values as cited in patent US20140371322A1, “Phenoxybenzamine Transdermal Composition” (PROFESSIONAL COMPOUNDING CENTERS OF AMERICA, priority 2013, published 2014).

Legend:
[1] = weak base

## CC(COc1ccccc1)N(CCCl)Cc1ccccc1 (centres unmarked) [phenoxybenzamine]
[1]
  pka (dissociation constant): 6.58
other
  octanol/water log P partition coefficient: 4.6
